The record followed here is publication PMC4573970, “Further validation to support clinical translation of [^18F]FTC-146 for imaging sigma-1 receptors” (EJNMMI Research, 2015).

The term Ki denotes a measure of affinity in units of concentration, obtained from inhibition or displacement. High values mean a looser hold on the target, low ones a stronger hold on the target.

Each structure is given as a SMILES string.

Assay [1] addresses T1, sigma-1 receptor (S1R) (Mus musculus, UniProt O55242).
T1 construct: gene Sigmar1; native receptor in WT mouse brain
Kind of assay: in vivo PET blocking of […]FTC-146 ([…] mg/kg), with S1R-KO control. It counts as cell-based.

Assay [2] has as its target T2, vesicular acetylcholine transporter (VAChT) (Homo sapiens, UniProt Q16572).
T2 construct: gene SLC18A3
T2 sequence (Q16572 1-532): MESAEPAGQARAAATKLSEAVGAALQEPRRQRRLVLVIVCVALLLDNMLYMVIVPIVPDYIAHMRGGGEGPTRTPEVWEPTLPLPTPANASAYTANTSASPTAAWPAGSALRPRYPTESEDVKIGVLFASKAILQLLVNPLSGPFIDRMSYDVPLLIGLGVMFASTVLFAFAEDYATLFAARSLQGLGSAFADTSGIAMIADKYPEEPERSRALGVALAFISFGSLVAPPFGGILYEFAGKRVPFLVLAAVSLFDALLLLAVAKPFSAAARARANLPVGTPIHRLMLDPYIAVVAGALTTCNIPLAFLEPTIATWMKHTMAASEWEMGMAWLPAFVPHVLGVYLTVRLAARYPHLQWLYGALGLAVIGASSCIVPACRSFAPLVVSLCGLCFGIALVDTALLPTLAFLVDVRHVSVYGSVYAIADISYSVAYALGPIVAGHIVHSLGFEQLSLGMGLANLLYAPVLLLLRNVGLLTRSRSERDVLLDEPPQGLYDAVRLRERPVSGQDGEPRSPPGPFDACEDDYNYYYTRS

T1 sequence (O55242 whole entry): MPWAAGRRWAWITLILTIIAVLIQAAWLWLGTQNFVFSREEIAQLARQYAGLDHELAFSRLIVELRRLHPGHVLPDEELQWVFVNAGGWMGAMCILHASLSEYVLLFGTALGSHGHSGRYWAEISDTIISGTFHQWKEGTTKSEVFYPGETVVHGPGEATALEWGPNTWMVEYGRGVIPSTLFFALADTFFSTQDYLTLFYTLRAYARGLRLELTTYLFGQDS

On to `CN(C)CCN(C)CCc1ccc(Cl)c(Cl)c1` [BD1047], for which the “in vivo PET blocking of [18F]FTC-146 (1 mg/kg), with S1R-KO control” value in assay [1] is given as “following receptor blocking with a known S1R antagonist (BD-1047), showed similarly rapid washout of tracer”.

Compound `O=c1sc2cc(CCCF)ccc2n1CCN1CCCCCC1` [FTC-146] gave a Ki in assay [2] of 450 ± 80 nM.
